# Assay: Safety (adverse events, NCI CTCAE v4.0), expansion phase
# Conditions: expansion Total (n = 82)
# Source text: Based on data collected during dose-escalation, the expansion phase evaluated the safety and efficacy of QD and QW sapanisertib in patients with RCC, endometrial or bladder cancer. Patients could continue receiving sapanisertib for ≤1 year (or beyond, if the investigator and sponsor agreed) in the absence of disease progression or unacceptable toxicity.
# Patients who received ≥1 dose of sapanisertib were included in the safety population. The response-evaluable population included patients who received ≥1 dose of sapanisertib, had measurable disease at baseline, and had ≥1 postbaseline assessment. […] Adverse events (AEs) were assessed using the National Cancer Institute Common Terminology Criteria for Adverse Events, v4.0. Patients were provided with a home blood-glucose meter to monitor their fasting predose blood-glucose measurements to assess hyperglycaemia as an on-target AE and PD marker.
smiles,measurement,value
CC(C)n1nc(-c2ccc3oc(N)nc3c2)c2c(N)ncnc21 [Sapanisertib],"Abdominal pain, all-grade AE of any cause",17 (21) n (%)
same,"Abdominal pain, grade ≥3 AE of any cause",3 (4) n (%)
same,"Acute kidney injury, grade ≥3 AE of any cause",4 (5) n (%)
same,"Acute kidney injury, treatment-related AE",6 (7) n (%)
same,"Anaemia, all-grade AE of any cause",19 (23) n (%)
same,"Anaemia, grade ≥3 AE of any cause",5 (6) n (%)
same,"Anaemia, treatment-related AE",12 (15) n (%)
same,Any AE,82 (100) n (%)
same,Any AE resulting in dose modification/interruption,55 (67) n (%)
same,Any AE resulting in treatment discontinuation,12 (15) n (%)
same,Any SAE,34 (41) n (%)
same,Any grade ≥3 AE,58 (71) n (%)
same,Any treatment-related AE,82 (100) n (%)
same,Any treatment-related SAE,12 (15) n (%)
same,Any treatment-related grade ≥3 AE,38 (46) n (%)
same,"Arthralgia, all-grade AE of any cause",11 (13) n (%)
same,"Asthenia, grade ≥3 AE of any cause",3 (4) n (%)
same,"Asthenia, treatment-related AE",12 (15) n (%)
same,"Asthenia, treatment-related grade ≥3 AE",2 (2) n (%)
same,"Blood creatinine increased, all-grade AE of any cause",14 (17) n (%)
same,"Blood creatinine increased, treatment-related AE",8 (10) n (%)
same,"Constipation, all-grade AE of any cause",28 (34) n (%)
same,"Constipation, grade ≥3 AE of any cause",2 (2) n (%)
same,"Cough, all-grade AE of any cause",22 (27) n (%)
same,"Decreased appetite, all-grade AE of any cause",41 (50) n (%)
same,"Decreased appetite, treatment-related AE",37 (45) n (%)
same,"Dehydration, all-grade AE of any cause",17 (21) n (%)
same,"Dehydration, grade ≥3 AE of any cause",3 (4) n (%)
same,"Dehydration, treatment-related AE",9 (11) n (%)
same,"Dehydration, treatment-related grade ≥3 AE",2 (2) n (%)
same,"Depression, all-grade AE of any cause",8 (10) n (%)
same,"Diarrhoea, all-grade AE of any cause",41 (50) n (%)
same,"Diarrhoea, grade ≥3 AE of any cause",3 (4) n (%)
same,"Diarrhoea, treatment-related AE",35 (43) n (%)
same,"Diarrhoea, treatment-related grade ≥3 AE",3 (4) n (%)
same,"Dizziness, all-grade AE of any cause",12 (15) n (%)
same,"Dry mouth, all-grade AE of any cause",15 (18) n (%)
same,"Dry mouth, treatment-related AE",10 (12) n (%)
same,"Dysgeusia, all-grade AE of any cause",17 (21) n (%)
same,"Dysgeusia, treatment-related AE",16 (20) n (%)
same,"Dyspepsia, treatment-related AE",6 (7) n (%)
same,"Dyspnoea, grade ≥3 AE of any cause",2 (2) n (%)
same,"Fatigue, all-grade AE of any cause",60 (73) n (%)
same,"Fatigue, grade ≥3 AE of any cause",11 (13) n (%)
same,"Fatigue, treatment-related AE",56 (68) n (%)
same,"Fatigue, treatment-related grade ≥3 AE",10 (12) n (%)
same,"Haematuria, grade ≥3 AE of any cause",2 (2) n (%)
same,"Headache, all-grade AE of any cause",12 (15) n (%)
same,"Headache, treatment-related AE",4 (5) n (%)
same,"Hypercholesterolemia, treatment-related AE",1 (1) n (%)
same,"Hyperglycaemia, all-grade AE of any cause",50 (61) n (%)
same,"Hyperglycaemia, grade ≥3 AE of any cause",13 (16) n (%)
same,"Hyperglycaemia, treatment-related AE",49 (60) n (%)
same,"Hyperglycaemia, treatment-related grade ≥3 AE",13 (16) n (%)
same,"Hyperkalaemia, grade ≥3 AE of any cause",2 (2) n (%)
same,"Hypertension, grade ≥3 AE of any cause",2 (2) n (%)
same,"Hypokalaemia, grade ≥3 AE of any cause",2 (2) n (%)
same,"Hyponatremia, grade ≥3 AE of any cause",3 (4) n (%)
same,"Hypophosphatemia, grade ≥3 AE of any cause",8 (10) n (%)
same,"Hypophosphatemia, treatment-related AE",9 (11) n (%)
same,"Hypophosphatemia, treatment-related grade ≥3 AE",6 (7) n (%)
same,"Lymphopenia, grade ≥3 AE of any cause",2 (2) n (%)
same,"Lymphopenia, treatment-related grade ≥3 AE",0 (0) n (%)
same,"Musculoskeletal chest pain, grade ≥3 AE of any cause",2 (2) n (%)
same,"Nausea, all-grade AE of any cause",54 (66) n (%)
same,"Nausea, grade ≥3 AE of any cause",5 (6) n (%)
same,"Nausea, treatment-related AE",51 (62) n (%)
same,"Nausea, treatment-related grade ≥3 AE",4 (5) n (%)
same,"Oedema peripheral, all-grade AE of any cause",15 (18) n (%)
same,On-study deaths,3 (4) n (%)
same,"Oropharyngeal pain, all-grade AE of any cause",13 (16) n (%)
same,"Pain in extremity, grade ≥3 AE of any cause",3 (4) n (%)
same,"Pneumonia, grade ≥3 AE of any cause",2 (2) n (%)
same,"Pruritus generalised, all-grade AE of any cause",19 (23) n (%)
same,"Pruritus generalised, treatment-related AE",15 (18) n (%)
same,"Pruritus generalised, treatment-related grade ≥3 AE",1 (1) n (%)
same,"Pruritus, all-grade AE of any cause",15 (18) n (%)
same,"Pruritus, treatment-related AE",11 (13) n (%)
same,"Pyrexia, all-grade AE of any cause",14 (17) n (%)
same,"Rash maculo-papular, all-grade AE of any cause",24 (29) n (%)
same,"Rash maculo-papular, grade ≥3 AE of any cause",4 (5) n (%)
same,"Rash maculo-papular, treatment-related AE",17 (21) n (%)
same,"Rash maculo-papular, treatment-related grade ≥3 AE",3 (4) n (%)
same,"Rash, treatment-related AE",2 (2) n (%)
same,"Rash, treatment-related grade ≥3 AE",0 (0) n (%)
same,"Sepsis, grade ≥3 AE of any cause",2 (2) n (%)
same,"Stomatitis (includes oropharyngeal pain and mucosal inflammation), treatment-related AE",37 (45) n (%)
same,"Stomatitis, all-grade AE of any cause",40 (49) n (%)
same,"Stomatitis, grade ≥3 AE of any cause",4 (5) n (%)
same,"Stomatitis, treatment-related grade ≥3 AE",4 (5) n (%)
same,"Thrombocytopenia, grade ≥3 AE of any cause",4 (5) n (%)
same,"Thrombocytopenia, treatment-related grade ≥3 AE",4 (5) n (%)
same,"Transitional cell carcinoma, grade ≥3 AE of any cause",2 (2) n (%)
same,"Urinary tract infection, all-grade AE of any cause",15 (18) n (%)
same,"Vomiting, all-grade AE of any cause",43 (52) n (%)
same,"Vomiting, grade ≥3 AE of any cause",3 (4) n (%)
same,"Vomiting, treatment-related AE",41 (50) n (%)
same,"Weight decreased, all-grade AE of any cause",15 (18) n (%)
same,"Weight decreased, treatment-related AE",9 (11) n (%)
